Results published in patent US20210128702A1 (priority 2017, published 2021).

Experiments:
Assay type in all cases: cell-based
[1] = test system: 4 MM cell lines
[2] = test system: Non-MM, bone marrow cells (CD138−)
[3] = test system: MM.1S cells
[4] = test system: MM.1S cells; remark: listed apart in the source
[5] = test system: U266 cells

CC(C)C[C@H](NC(=O)[C@H](Cc1ccccc1)NC(=O)c1cnccn1)B(O)O [bortezomib]
polyUb protein fluorescence (proteotoxicity) [1]: increased fluorescence in all cell lines
polyUb proteins accumulation [2]: only modest polyUb proteins accumulation

C[C@@H]1C[C@@H]([C@H](O)CC2CC(=O)NC(=O)C2)C(=O)[C@@H](C)C1 [cycloheximide]
effect on bortezomib-induced apoptosis [3]: decreased bortezomib-induced apoptosis
effect on polyUb [4]: decreases polyUb

tunicamycin
sensitization to Btz-induced apoptosis [5]: sensitizes U266 cells to Btz-induced apoptosis
